Measurements as given in ChEMBL document CHEMBL5120927, “LEGO-Lipophosphonoxins: A Novel Approach in Designing Membrane Targeting Antimicrobials” (J Med Chem, 2022).

Experiments:
[1] = test system: Enterococcus faecium; assay: Antibacterial activity against vancomycin resistant Enterococcus faecium 419/ANA assessed as reduction in microbial growth incubated for 24 hrs by microdilution assay; assay type: functional
[2] = test system: Escherichia coli; assay: Antibacterial activity against Escherichia coli ATCC 25922 = CCM 3954 assessed as inhibition of bacterial growth incubated for 24 hrs in presence of BSA by microdilution assay; assay type: functional
[3] = test system: Staphylococcus epidermidis; assay: Antibacterial activity against Staphylococcus epidermidis CCM 7221 assessed as inhibition of bacterial growth incubated for 24 hrs by microdilution assay; assay type: functional
[4] = test system: Staphylococcus aureus; assay: Antibacterial activity against Staphylococcus aureus ATCC 29213 = CCM 4223 assessed as inhibition of bacterial growth incubated for 24 hrs by microdilution assay; assay type: functional
[5] = test system: Pseudomonas aeruginosa; assay: Antibacterial activity against multidrug-resistant Pseudomonas aeruginosa assessed as reduction in microbial growth incubated for 24 hrs by microdilution assay; assay type: functional
[6] = test system: Escherichia coli; assay: Antibacterial activity against multidrug-resistant Escherichia coli CE5556 expressing CTX-M-15 assessed as reduction in microbial growth incubated for 24 hrs by microdilution assay; assay type: functional
[7] = test system: Pseudomonas aeruginosa; assay: Antibacterial activity against Pseudomonas aeruginosa ATCC 27853 = CCM 3955 assessed as inhibition of bacterial growth incubated for 24 hrs by microdilution assay; assay type: functional
[8] = test system: Staphylococcus aureus; assay: Antibacterial activity against Staphylococcus aureus ATCC 29213 = CCM 4223 assessed as inhibition of bacterial growth incubated for 24 hrs in presence of BSA by microdilution assay; assay type: functional
[9] = Gradient chromatographic hydrophobicity index of the compound at pH 3.7 by HPLC analysis; assay type: ADME
[10] = test system: Escherichia coli; assay: Antibacterial activity against Escherichia coli ATCC 25922 = CCM 3954 assessed as inhibition of bacterial growth incubated for 24 hrs by microdilution assay; assay type: functional
[11] = Hemolytic activity in human RBC assessed as haemoglobin release measured after 3 hr; assay type: toxicity, cell-based, Erythrocyte; settings: red blood cells (erythrocytes)
[12] = test system: Enterococcus faecalis; assay: Antibacterial activity against Enterococcus faecalis ATCC 29212 = CCM 4224 assessed as inhibition of bacterial growth incubated for 24 hrs by microdilution assay; assay type: functional
[13] = test system: Staphylococcus aureus; assay: Antibacterial activity against methicillin resistant Staphylococcus aureus 4591/A assessed as reduction in microbial growth incubated for 24 hrs by microdilution assay; assay type: functional

## CCCCCOP(=O)(CCN(CCN)CCN)OCCCCCCCCOP(=O)(CCN(CCN)CCN)OCCCCC.Cl.Cl.Cl.Cl.Cl.Cl (centres undefined)
[1]
  MIC: > 128 µg/mL
[2]
  MIC: > 128 µg/mL
[3]
  MIC: 2 µg/mL
[4]
  MIC: 8 µg/mL
[5]
  MIC: > 128 µg/mL
[6]
  MIC: > 128 µg/mL
[7]
  MIC: > 128 µg/mL
[8]
  MIC: 8 µg/mL
[9]
  CHI: 34.7
[10]
  MIC: 2 µg/mL
[11]
  HC50 at 3 h: > 200 µg/mL
[12]
  MIC: > 128 µg/mL
[13]
  MIC: 8 µg/mL

## CCCCCCCCOP(=O)(CCN(CCN)CCN)OCCCCCCCCOP(=O)(CCN(CCN)CCN)OCCCCCCCC.Cl.Cl.Cl.Cl.Cl.Cl (centres undefined)
[1]
  MIC: 2 µg/mL
[2]
  MIC: 5 µg/mL
[3]
  MIC: 0.2 µg/mL
[4]
  MIC: 0.5 µg/mL
[5]
  MIC: 1 µg/mL
[6]
  MIC: 1 µg/mL
[7]
  MIC: 1 µg/mL
[8]
  MIC: 0.2 µg/mL
[9]
  CHI: 45.2
[10]
  MIC: 64 µg/mL
[11]
  HC50 at 3 h: 19 µg/mL
[12]
  MIC: 1 µg/mL
[13]
  MIC: 3 µg/mL

## Cl.Cl.Cl.Cl.Cl.Cl.NCCCN(CCCN)CCP(=O)(OCCCCCCOP(=O)(CCN(CCCN)CCCN)OCCC12CC3CC(CC(C3)C1)C2)OCCC12CC3CC(CC(C3)C1)C2 (centres undefined)
[1]
  MIC: 2 µg/mL
[2]
  MIC: 1 µg/mL
[3]
  MIC: 0.5 µg/mL
[4]
  MIC: 0.5 µg/mL
[5]
  MIC: 2 µg/mL
[6]
  MIC: 1 µg/mL
[7]
  MIC: 1 µg/mL
[8]
  MIC: 0.2 µg/mL
[9]
  CHI: 38.4
[10]
  MIC: > 128 µg/mL
[11]
  HC50 at 3 h: 72.2 µg/mL
[12]
  MIC: 1 µg/mL
[13]
  MIC: 0.5 µg/mL

## Cl.Cl.Cl.Cl.Cl.Cl.NCCCN(CCCN)CCP(=O)(OCCCCCCOP(=O)(CCN(CCCN)CCCN)OCC1CCCC1)OCC1CCCC1 (centres undefined)
[1]
  MIC: > 128 µg/mL
[2]
  MIC: > 128 µg/mL
[3]
  MIC: 64 µg/mL
[4]
  MIC: 128 µg/mL
[5]
  MIC: > 128 µg/mL
[6]
  MIC: > 128 µg/mL
[7]
  MIC: > 128 µg/mL
[8]
  MIC: > 128 µg/mL
[9]
  CHI: 14.8
[10]
  MIC: > 128 µg/mL
[11]
  HC50 at 3 h: > 1000 µg/mL
[12]
  MIC: > 128 µg/mL
[13]
  MIC: 128 µg/mL

## CCCCCCCCCCOP(=O)(CCN(CCCN)CCCN)OCCCCCCCCCCOP(=O)(CCN(CCCN)CCCN)OCCCCCCCCCC.Cl.Cl.Cl.Cl.Cl.Cl (centres undefined)
[1]
  MIC: 2 µg/mL
[2]
  MIC: 16 µg/mL
[3]
  MIC: 1 µg/mL
[4]
  MIC: 2 µg/mL
[5]
  MIC: 4 µg/mL
[6]
  MIC: 2 µg/mL
[7]
  MIC: 4 µg/mL
[8]
  MIC: 1 µg/mL
[9]
  CHI: 46.9
[10]
  MIC: > 2 µg/mL
[11]
  HC50 at 3 h: 5.2 µg/mL
[12]
  MIC: 2 µg/mL
[13]
  MIC: 1 µg/mL

## CC(C)COP(=O)(CCN(CCCN)CCCN)OCCCCCCCCOP(=O)(CCN(CCCN)CCCN)OCC(C)C.Cl.Cl.Cl.Cl.Cl.Cl (centres undefined)
[1]
  MIC: > 128 µg/mL
[2]
  MIC: > 128 µg/mL
[3]
  MIC: 32 µg/mL
[4]
  MIC: > 128 µg/mL
[5]
  MIC: > 128 µg/mL
[6]
  MIC: > 128 µg/mL
[7]
  MIC: > 128 µg/mL
[8]
  MIC: > 128 µg/mL
[9]
  CHI: 25.2
[10]
  MIC: > 128 µg/mL
[11]
  HC50 at 3 h: > 1000 µg/mL
[12]
  MIC: > 128 µg/mL
[13]
  MIC: > 128 µg/mL

## CCC/C=C\CCOP(=O)(CCN(CCCN)CCCN)OCCCCCCCOP(=O)(CCN(CCCN)CCCN)OCC/C=C\CCC.Cl.Cl.Cl.Cl.Cl.Cl (centres undefined)
[1]
  MIC: 128 µg/mL
[2]
  MIC: 64 µg/mL
[3]
  MIC: 2 µg/mL
[4]
  MIC: 4 µg/mL
[5]
  MIC: 128 µg/mL
[6]
  MIC: 16 µg/mL
[7]
  MIC: 128 µg/mL
[8]
  MIC: 8 µg/mL
[9]
  CHI: 31.3
[10]
  MIC: 4 µg/mL
[11]
  HC50 at 3 h: > 200 µg/mL
[12]
  MIC: 64 µg/mL
[13]
  MIC: 4 µg/mL

## CCC/C=C\CCOP(=O)(CCN(CCCNC(=N)N)CCCNC(=N)N)OCCCCCCOP(=O)(CCN(CCCNC(=N)N)CCCNC(=N)N)OCC/C=C\CCC.Cl.Cl.Cl.Cl.Cl.Cl (centres undefined)
[1]
  MIC: > 128 µg/mL
[2]
  MIC: 2 µg/mL
[3]
  MIC: 2 µg/mL
[4]
  MIC: 2 µg/mL
[5]
  MIC: 64 µg/mL
[6]
  MIC: 2 µg/mL
[7]
  MIC: 64 µg/mL
[8]
  MIC: 2 µg/mL
[9]
  CHI: 29.7
[10]
  MIC: 2 µg/mL
[11]
  HC50 at 3 h: > 500 µg/mL
[12]
  MIC: 64 µg/mL
[13]
  MIC: 2 µg/mL
